Data from patent US5753664A, “Heterocyclic compounds, their production and use” (Takeda Chemical Industries, Ltd., priority 1995, dated 1998).
Structures can show the parent of a compound that is named as a salt. Where two headings read alike, the source gives them in different places.

Tested on: Prostate carcinoma cell line PC-3
Test: In vitro prostate carcinoma cell proliferation inhibition assay (MTT)
Type: cell-based, human
Conditions: read-out: IC50 PC-3
Procedure: In vitro prostate carcinoma cell proliferation inhibition assay
Prostate carcinoma cell line PC-3 cells were suspended in Ham's F-12K medium (Flow Laboratories or Dainippon Pharmaceutical Co,. Ltd) supplemented with 10% fetal calf serum, and seeded in a 96-well microtiter plate (5000 cells/50 or 75 μl/well). The plate was then incubated in a 5% CO2 incubator at 37° C. On the following day, a 3-fold dilution series with the medium with serum of the test compound in N,N-dimethylformamide (DMF) (50 or 25 μl/well) were added (final volume […]) and the plate was incubated for another 3 days. Following addition of a thiazolyl-tetrazolium (MTT) solution, absorbance based on the viable cell number was determined "Tada et al., Journal of Immunological Methods, 93, 157 (1986)". With the estimated cell number in the control group to which the test compound solution was not added being taken as 100%, the percentage of the estimated cell number in each test group was determined and the concentration (IC50 value) of the test compound which was required for 50% inhibition of the estimated viable cell number in the control group was calculated.

[1] = Homo sapiens, 72 h, PC-3, 3 days incubation, MTT

SMILES	IC50 [1] [nM]	further results
O=C(c1ccc(Cn2ccn3c(=O)c4c(nc23)CCCC4)cc1)c1ccc(C(F)(F)F)cc1 [Example 329, 1-[4-(4-Trifluorobenzoyl)benzyl]-6,7,8,9-tetrahydroimidazo[2,1-b]quinazolin-5(1H)-one]	2.6	
Cn1ncc2c(c(Cl)c(Cl)n2Cc2ccc(C(=O)c3ccc(Cl)cc3)cc2)c1=O [Example 37, 1-[4-(4-Chlorobenzoyl)benzyl]-2,3-dichloro-5-methyl-1H-pyrrolo[2,3-d]pyridazin-4(5H)-one]	6	
Cc1cccc2nc(SCc3ccc(C(=O)c4ccc(OCC(=O)c5ccccc5)cc4)cc3)n(C)c(=O)c12 [Example 234, 3,5-Dimethyl-2-[4-(4-phenacyloxybenzoyl)benzylthio]-4-(3H)-quinazolinone]	7	
Cc1nc2n(Cc3ccc(C(=O)c4ccc(Cl)cc4)cc3)ccn2c(=O)c1C(C)C [Example 181, 1-[4-(4-Chlorobenzoyl)benzyl]-6-isopropyl-7-methylimidazo[1,2-a]pyrimidin-5(1H)-one]	3	
Cn1c(SCc2ccc(C(=O)c3ccc(N4CCC(N5CCCCC5)CC4)nc3)cc2)nc2ccsc2c1=O [Example 158, 3-Methyl-2-[4-[6-(4-piperidinopiperidinyl)nicotinoyl]benzylthio]thieno[3,2-d]pyrimidin-4(3H)-one hydrochloride]	4.5	
CCc1cccc2nc(SCc3ccc(C(=O)c4ccc(Cl)cc4)cc3)n(C)c(=O)c12 [Example 214, 2-[4-(4-Chlorobenzoyl)benzyl]thio-5-ethyl-3-methyl-4(3H)-quinazolinone]	5.2	
Cc1c(SCc2ccc(C(=O)c3ccc(C(F)(F)F)cc3)cc2)nc2n(c1=O)CCCS2 [Example 365, 3,4-Dihydro-7-methyl-8-(4-(4-trifluoromethylbenzoyl)benzylthio)-2H,6H-pyrimido[2,1-b][1,4]thiazin-6-one]	6.2	
Cc1cccc2nc(SCc3ccc(C(=O)c4ccc(C(=O)N5CCC(N6CCCCC6)CC5)cc4)cc3)n(C)c(=O)c12 [Example 193, 3,5-Dimethyl-2-[4-[4-(4-piperidinopiperidinocarbonyl)benzoyl]benzyl]thio-4(3H)-quinazolinone]	2	
CCOP(=O)(OCC)Oc1ccc(C(=O)c2ccc(CSc3nc4cccc(C)c4c(=O)n3C)cc2)cc1 [Example 217, 2-[4-(4-Diethylphosphonooxybenzoyl)benzylthio]-3,5-dimethyl-4(3H)-quinazolinone]		IC50 (PC-3, 3 days incubation, MTT): < 1.52 nM
CCn1c(SC)nc2c(cnn2Cc2ccc(C(=O)c3ccc(OC)cc3)cc2)c1=O [132(A), 5-Ethyl-1-[4-(4-methoxybenzoyl)benzyl]-6-methylthio-1,5-dihydro-4H-pyrazolo[3,4-d]pyrimidin-4-one]	2	
Cc1cn(C)c2nc(SC(C)c3ccc(C(=O)c4ccc(F)cc4)cc3)n(C)c(=O)c12 (stereo not shown) [57(B), 2-[1-[4-(4-Fluorobenzoyl)phenyl]ethyl]thio-3,5,7-trimethyl-7H-pyrrolo[2,3-d]pyrimidin-4(3H)-one]	9	
Cc1cccc2nc(SCc3ccc(C(=O)c4ccc(OC(=O)N(C)C)cc4)cc3)n(C)c(=O)c12 [Example 228, 3,5-Dimethyl-2-[4-[4-(N,N-dimethylcarbamoyloxy)-benzoyl]benzylthio]-4(3H)-quinazolinone]		IC50 (Homo sapiens, 72 h): 7 nM
Cc1c[nH]c2nc(SCc3ccc(C(=O)c4ccc(Cl)cc4)cc3)[nH]c(=O)c12 [Example 50, 2-[4-(4-Chlorobenzoyl)benzyl]thio-5-methyl-7H-pyrrolo[2,3-d]pyrimidin-4(3H)-one]	9	
Cn1ncc2c(c(Cl)c(Cl)n2Cc2ccc(C(=O)c3ccc(F)cc3)cc2)c1=O [Example 66, 1-[4-(4-Fluorobenzoyl)benzyl]-2,3-dichloro-5-methyl-1H-pyrrolo [2,3-d]pyridazin-4(5H)-one]	8	
Cc1c(OCc2ccc(C(=O)c3ccc(C(F)(F)F)cc3)cc2)nc2ccccn2c1=O [Example 124, 3-Methyl-2-[4-(4-trifluoromethylbenzoyl)benzyloxy]pyrido[1,2-a]pyrimidin-4-one]	8	
Cc1cn(Cc2ccc(C(=O)c3ccc(Cl)cc3)cc2)c2ncn(C)c(=O)c12 [Example 94, 7-[4-(4-Chlorobenzoyl)benzyl]-3,5-dimethyl-7H-pyrrolo [2,3-d]pyrimidin-4(3H)-one]	2	
Cc1cn(C)c2nc(SCc3ccc(C(=O)c4ccc(F)cc4)cc3)n(C)c(=O)c12 [57(A), 2-[4-(4-Fluorobenzoyl)benzyl]thio-3,5,7-trimethyl-7H-pyrrolo[2,3-d]pyrimidin-4(3H)-one]	5	
CCc1c(C)nc2n(Cc3ccc(C(=O)c4ccc(Cl)cc4)cc3)ccn2c1=O [Example 169, 1-[4-(4-Chlorobenzoyl)benzyl]-6-ethyl-7-methylimidazo[1,2-a]pyrimidin-5(1H)-one]	< 1.52	
Cc1nn(Cc2ccc(C(=O)c3ccc(Cl)cc3)cc2)c2cnn(C)c(=O)c12 [84(A), 1-[4-(4-Chlorobenzoyl)benzyl]-3,5-dimethyl-1H-pyrazolo [3,4-d]pyridazin-4(5H)-one]	2	

The next lines start with results.

IC50 [1] [nM]	SMILES	further results
< 1.52	Cc1cccc2nc(SCc3ccc(C(=O)c4ccc(CSc5nnnn5CCN(C)C)cc4)cc3)n(C)c(=O)c12 [Example 138, 3,5-Dimethyl-2-[4-[4-[[1-(2-dimethylaminoethyl)-1H-tetrazol-5-yl]thiomethyl]benzoyl]benzylthio]-4(3H)-quinazolinone]	
< 1.52	Cc1cccc2nc(SCc3ccc(C(=O)c4ccc(C(=O)N5CCN(C)CC5)cc4)cc3)n(C)c(=O)c12 [Example 184, 3,5-Dimethyl-2-[4-[4-(4-methylpiperazinocarbonyl)benzoyl]benzyl]thio-4(3H)-quinazolinone]	
< 1.52	CCn1c(SC)nc2c(ccn2Cc2ccc(C(=O)c3ccc(Cl)cc3)cc2)c1=O [Example 252, 7-[4-(4-Chlorobenzoyl)benzyl]-3-ethyl-2-methylthio-7H-pyrrolo[2,3-d]pyrimidin-4-one]	
< 1.52	Cc1cccc2nc(SCc3ccc(C(=O)c4ccc(CN5CCN(C)CC5)cc4)cc3)n(C)c(=O)c12 [Example 144, 3,5-Dimethyl-2-[4-[4-(4-methylpiperazinylmethyl)benzoyl]benzylthio]-4(3H)-quinazolinone]	
< 1.52	CCn1c(SC)nc2c(cnn2Cc2ccc(C(=O)c3ccc(Cl)cc3)cc2)c1=O [129(A)]	
< 1.52	Cc1cn(C)c2nc(SCc3ccc(C(=O)c4ccc(Cl)cc4)cc3)n(C)c(=O)c12 [Example 55, 2-[4-(4-Chlorobenzoyl)benzyl]thio-3,5,7-trimethyl-7H-pyrrolo[2,3-d]pyrimidin-4(3H)-one]	
0.94	Cc1ccc(C(=O)c2ccc(COc3nc4n(c(=O)c3C)CCCS4)cc2)cc1 [Example 406, 7-Methyl-8-[4-(4-methylbenzoyl)benzyloxy]-3,4-dihydro-2H,6H-pyrimido[2,1-b][1,3]thiazin-6-one]	
< 1.52	Cc1csc2nc(SCc3ccc(C(=O)c4ccc(OCCN5CCOCC5)cc4)cc3)n(C)c(=O)c12 [Example 148, 3,5-Dimethyl-2-[4-[4-(2-morpholinoethoxy)benzoyl]-benzylthio]thieno[2,3-d]pyrimidin-4(3H)-one]	
< 1.52	CCn1cnc2c(c(C)cn2Cc2ccc(C(=O)c3ccc(Cl)cc3)cc2)c1=O [Example 96, 7-[4-(4-Chlorobenzoyl)benzyl]-3-ethyl-5-methyl-7H-pyrrolo [2,3-d]pyrimidin-4(3H)-one]	
